# From patent publication US10889556B2, “Compositions and methods for inhibiting influenza RNA polymerase PA endonuclease” (The Regents of the University of California, priority 2016, dated 2021)
# Target: influenza PA endonuclease (Influenza A virus, UniProt C3W5S0)
# Test: biochemical
# Set-up: species or system Pandemic H1N1 influenza A
# Conditions: not given
Structure (SMILES),IC50,LE
CNC(=O)c1occc(=O)c1O [A11],4100 nM,–
CNC(=O)c1[nH]ccc(=O)c1O [B4],13000 nM,–
"Cc1occ(O)c(=O)c1C(=O)NCCc1ccccc1 [Compound 13, 5-Hydroxy-2-methyl-4-oxo-N-phenethyl-4H-pyran-3-carboxamide]",11300 ± 1200 nM,–
"COc1cccc(CNC(=O)c2c(C)occ(O)c2=O)c1 [Compound 18, 5-Hydroxy-N-(3-methoxybenzyl)-2-methyl-4-oxo-4H-pyran-3-carboxamide]",22100 ± 600 nM,–
"O=c1cc(CNCc2ccccc2)occ1O [Compound 26, 2-((Benzylamino)methyl)-5-hydroxy-4H-pyran-4-one]",2700 ± 400 nM,–
CS(=O)(=O)NCc1cc(=O)c(O)co1 [Compound 30],4800 ± 700 nM,–
"CN(Cc1cc(=O)c(O)co1)c1ccc(F)cc1 [Compound 39, 2-(((4-Fluorophenyl)(methyl)amino)methyl)-5-hydroxy-4H-pyran-4-one]",1800 ± 200 nM,–
"CN(Cc1cc(=O)c(O)co1)c1cccc(F)c1 [Compound 40, 2-(((3-Fluorophenyl)(methyl)amino)methyl)-5-hydroxy-4H-pyran-4-one]",3200 ± 100 nM,–
"CN(Cc1cc(=O)c(O)co1)c1ccncc1 [Compound 41, 5-Hydroxy-2-((methyl(pyridin-4-yl)amino)methyl)-4H-pyran-4-one]",> 100000 nM,–
"Cc1c(O)c(=O)ccn1-c1ccccc1 [Compound 45, 3-Hydroxy-2-methyl-1-phenylpyridin-4(1H)-one]",18000 ± 2000 nM,–
"Cc1c(O)c(=O)ccn1C1CCCCC1 [Compound 48, 1-Cyclohexyl-3-hydroxy-2-methylpyridin-4(1H)-one]",14000 ± 3000 nM,–
Cc1cc(=O)c(O)cn1C1CCOCC1 [Compound 51],730 ± 70 nM,–
COc1cc(C)c(C(=O)O)cc(O)c1=O [Compound 105],180 nM,0.66
O=C(O)c1ccc(O)c(O)c1 [Compound 107],220 nM,0.83
CC(C)c1cccc(=O)c(O)c1 [E4],11000 nM,–
"CCOC(=O)c1c(C)n(-c2ccccc2)cc(O)c1=O [compound 67, Ethyl 5-hydroxy-2-methyl-4-oxo-1-phenyl-1,4-dihydropyridine-3-carboxylate]",5300 ± 400 nM,–
"CCOC(=O)c1c(C)n(-c2ccc(Oc3ccccc3)cc2)cc(O)c1=O [compound 68, Ethyl 5-hydroxy-2-methyl-4-oxo-1-(4-phenoxyphenyl)-, 4-dihydropyridine-3-carboxylate]",5200 ± 800 nM,–
"O=c1cc(Br)[nH]c(-c2nnn[nH]2)c1O [compound 133, 6-Bromo-3-hydroxy-2-(1H-tetrazol-5-yl)pyridin-4(1H)-one]",63 nM,–
"O=C(O)c1[nH]c(-c2ccccc2)cc(=O)c1O [compound 142, 3-Hydroxy-4-oxo-6-phenyl-1,4-dihydropyridine-2-carboxylic acid]",5.6 nM,–
"O=C(O)c1[nH]c(-c2ccc(Oc3ccccc3)cc2)cc(=O)c1O [compound 143, 3-Hydroxy-4-oxo-6-(4-phenoxyphenyl)-1,4-dihydropyridine-2-carboxylic acid]",22 nM,–
"O=C(O)c1ccc(-c2cc(=O)c(O)c(C(=O)O)[nH]2)cc1 [compound 144, 6-(4-carboxyphenyl)-3-hydroxy-4-oxo-1,4-dihydropyridine-2-carboxylic acid]",1.6 nM,–
"O=C(O)c1cccc(-c2cc(=O)c(O)c(C(=O)O)[nH]2)c1 [compound 145, 6-(3-carboxyphenyl)-3-hydroxy-4-oxo-1,4-dihydropyridine-2-carboxylic acid]",2 nM,–
"Cc1cccc(-c2cc(=O)c(O)c(C(=O)O)[nH]2)c1 [compound 146, 3-hydroxy-4-oxo-6-(m-tolyl)-1,4-dihydropyridine-2-carboxylic acid]",4.8 nM,–
"O=C(O)c1[nH]c(-c2ccc(-c3nnn[nH]3)cc2)cc(=O)c1O [compound 148, 6-(4-(1H-tetrazol-5-yl)phenyl)-3-hydroxy-4-oxo-1,4-dihydropyridine-2-carboxylic acid]",1.9 nM,–
O=c1cc[nH]c(-c2ncco2)c1O [compound 151],71 nM,–
O=c1cccccc1O [compound 201],8800 nM,–
"Cc1cc(O)c(=O)c(O)cc1-c1ccccc1 [compound 213, 2,7-Dihydroxy-4-methyl-5-phenylcyclohepta-2,4,6-trien-1-one]",5 nM,–

# Same assay, conditions: IC50 value
row,Structure (SMILES),IC50
1,"O=C(O)c1[nH]c(Br)cc(=O)c1O [compound 131, 6-Bromo-3-hydroxy-4-oxo-1,4-dihydropyridine-2-carboxylic acid]",25 nM
